Experiments:
[1] = tested on: MC38 cells; experiment: PI staining of fixed cells, fluorescence microscopy; type: cell-based, murine; details: IC50 concentration, 72 h
Description: For morphological assessment of cell nuclei, MC38 cells were seeded overnight in 2-well chamber slides and then treated with the IC50 concentration of compound 3 for 72 h. At the end of the incubation period, cells were fixed with 4 [drawing 168] PFA for 15 min at RT. Staining of cells was performed with PI solution (0.1 [drawing 169] Triton X-100, 0.5 M EDTA pH 8, 50 μg mL^− 1 RNase, and 50 [drawing 170] mL^− 1 PI - final concentrations in PBS) for 1–2 min at RT. After washing in PBS, the cells were mounted in a fluorescence microscopy medium (Fluoromount- [drawing 171] , eBioscience, San Diego, CA, USA). The slides were analyzed with a ZeissAxio Observer Z1 inverted fluorescence microscope (Carl Zeiss AG, Oberkochen, Germany) at 400 [drawing 172] magnification. For the detection of autophagosomes, AO staining of cells seeded in 2-well chamber slides was applied. […] The dye was then removed, the cells were rinsed with PBS and immediately evaluated via fluorescence microscopy at 400 [drawing 175] magnification using the Leica DM4 B microscope equipped with a DFC7000 T camera (Leica Microsystems CMS GmbH, Wetzlar, Germany).

[2] = tested on: MC38 cells; experiment: MTT viability assay, MC38; type: cell-based, murine; details: 72 h, mean±SD; read-out: IC50 [μM] (n = 3) MC38 MTT
Description: In a preliminary test, the stability of all compounds dissolved in the cell medium (c = 100 μM, T = [drawing 47] ) for 72 h was validated by HPLC (see Supporting Information). Cell lines were incubated with the respective compounds in a concentration range of 1.56–100 μM for 72 h, and cell viability was measured using 3-(4,5-dimethylthiazol-2-yl)-2,5-diphenyltetrazolium bromide (MTT) and crystal violet (CV) assays. […] As MTT tests gave inconsistent results, possibly due to interference of the compound with mitochondrial respiration, for the further evaluation only the CV results are considered[97],[98].
The biological study was performed on a murine colon adenocarcinoma cell line (MC38), two human colorectal carcinoma cell lines (HCT116 and HT29), and a human fetal lung fibroblast cell line (MRC-5). All cell lines are commercially available and were obtained from the American Type Culture Collection (ATCC). The human cell lines were kept in HEPES-buffered RPMI-1640 medium supplemented with 10 [drawing 141] heat-inactivated FCS, 2 mM L-glutamine, 0.01 [drawing 142] sodium pyruvate, penicillin (100 units mL^−1), and, streptomycin ( [drawing 143] mL^-1). The MC38 cell line was maintained in DMEM medium additionally supplemented with 1 [drawing 144] non-essential amino acids. Cells were grown at [drawing 145] in a humidified atmosphere with 5 [drawing 146] [drawing 147] . Peritoneal exudate cells (PECs) were isolated from healthy C57BL/6 mice (males, n = 3, 3 months old, weight 22–25 g) by performing an ice-cold PBS peritoneal lavage. Mice were sacrificed by cervical dislocation. Cells were cultivated for 4 h when nonadherent population was removed by washing in PBS, and additionally cultivated overnight in HEPES-buffered RPMI-1640 medium supplemented with 5 [drawing 148] heat-inactivated FCS before treatment with experimental drugs. Animal handling and protocol for isolation of PECs were performed according to European Union rules, and the ARRIVE guidelines 2.0.
For the viability tests, MC38, HCT116, and HT29 cells were seeded in 96-well plates at a density of 2 [drawing 149] 103, 5 [drawing 150] 103, and 6 [drawing 151] 10^3 cells/well, respectively. To determine whether the drug affected the viability of healthy, non-malignant cells, MRC-5 and PECs were seeded in 96-well plates at a density of 8 [drawing 152] 103 and 2 [drawing 153] 10^5 cells/well, respectively. For the flow cytometric analyses, MC38 cells were seeded in 6-well plates at 5 [drawing 154] 10^4 cells/well. For morphological assessment of nuclei and the detection of autophagy, MC38 cells were seeded in 2-well chamber slides at 1.5 [drawing 155] 10^4 cells/well.
After 72 h, cell viability was determined using MTT and CV tests. First, the supernatant from the wells was discarded and the cells were incubated with an MTT solution (0.5 mg mL^−1). After half an hour, the purple formazan crystals formed were dissolved in DMSO. For CV staining of the cells, the cells were fixed with 4 [drawing 157] PFA for 10 min and then stained with a 0.02 [drawing 158] CV solution for 15 min, all at room temperature (RT). The cells were then washed with tap water, air-dried and the dye was dissolved in 33 [drawing 159] acetic acid. For both viability tests, the absorbance of the developed colors was measured using an automated microplate reader at 570 nm with a reference wavelength of 670 nm. The results were expressed as a percentage of the control values of the untreated cells, which were arbitrarily set at 100 [drawing 160] . IC50 values, defined as 50 [drawing 161] inhibitory concentration, were calculated using a four-parameter logistic function and presented as mean±SD. All biological experiments were performed in triplicates. To evaluate the nature of the detected autophagy, a combined treatment with compound 3 and the autophagy inhibitors chloroquine (Chlq) and 3-methyladenine (3-MA) was carried out. […] After 72 h, cell viability was determined by CV assay.

[3] = target: T1, ovine COX-1 (Ovis aries, UniProt P05979); experiment: COX Fluorescent Inhibitor Screening Assay, COX-1; type: biochemical; details: absolute IC50, 0.1 to 100 μM in duplicate, 95% CI in brackets
T1 construct: purchased Cayman Chemical Company, Ann Arbor, MI, USA
T1 sequence (P05979 25-600): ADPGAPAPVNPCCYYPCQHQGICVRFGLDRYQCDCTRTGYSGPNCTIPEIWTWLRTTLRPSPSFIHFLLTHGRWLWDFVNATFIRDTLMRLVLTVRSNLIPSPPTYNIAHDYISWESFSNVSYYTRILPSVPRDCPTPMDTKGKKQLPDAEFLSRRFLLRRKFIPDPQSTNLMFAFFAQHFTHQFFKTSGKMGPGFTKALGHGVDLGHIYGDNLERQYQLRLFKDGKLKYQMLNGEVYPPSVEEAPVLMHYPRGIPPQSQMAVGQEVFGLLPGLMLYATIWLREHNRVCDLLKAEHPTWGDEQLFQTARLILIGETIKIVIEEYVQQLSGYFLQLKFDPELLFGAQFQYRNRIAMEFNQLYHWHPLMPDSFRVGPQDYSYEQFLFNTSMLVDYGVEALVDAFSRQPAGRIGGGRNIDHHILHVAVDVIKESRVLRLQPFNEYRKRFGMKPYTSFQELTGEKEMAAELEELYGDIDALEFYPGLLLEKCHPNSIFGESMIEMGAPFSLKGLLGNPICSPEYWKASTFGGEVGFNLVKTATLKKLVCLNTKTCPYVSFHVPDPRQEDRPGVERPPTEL
Description: The COX inhibition activity against ovine COX-1 and human recombinant COX-2 was determined using the COX Fluorescent Inhibitor Screening Assay Kit (Cayman Chemical Company, Ann Arbor, MI, USA) according to the manufacturer’s instructions as reported.

IC50 [3]: 15.3 µM
Substance: 1-[2-(7,8-dicarba-nido-undecaborate)]- [drawing 126] H-indolium-2-amine [compound 3]
nuclear morphology (PI staining) [1]: moderate involvement of apoptotic cells
IC50 [2]: 7.9 ± 0.2 µM
